Laboratory results as given in PMC5784824 (Journal of immunology (Baltimore, Md. : 1950), 2017).

Tests used:
hP2X4 = molecular target: T1, hP2X4 (Homo sapiens, UniProt Q99571); experiment: Fura-2 intracellular Ca2+ measurement in over-expressing […]1 cells; format: cell-based; details: agonist; pH 7.4; 1.5 mM CaCl2 buffer
T1 sequence (Q99571 1-388): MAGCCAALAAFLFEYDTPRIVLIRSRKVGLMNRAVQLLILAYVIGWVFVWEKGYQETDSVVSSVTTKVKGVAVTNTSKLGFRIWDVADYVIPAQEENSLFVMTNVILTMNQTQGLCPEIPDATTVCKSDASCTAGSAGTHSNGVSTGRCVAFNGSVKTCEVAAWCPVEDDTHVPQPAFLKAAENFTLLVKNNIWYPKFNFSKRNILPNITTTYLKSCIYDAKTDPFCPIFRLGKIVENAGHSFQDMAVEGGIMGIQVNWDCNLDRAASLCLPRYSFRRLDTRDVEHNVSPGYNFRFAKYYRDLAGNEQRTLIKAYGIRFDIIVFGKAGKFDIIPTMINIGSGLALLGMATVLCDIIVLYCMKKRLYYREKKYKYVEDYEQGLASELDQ

hP2X7 = molecular target: T2, hP2X7 (Homo sapiens, UniProt Q99572); experiment: as above; format: cell-based; details: agonist; pH 7.4; 1.5 mM CaCl2 buffer
T2 sequence (Q99572 1-595): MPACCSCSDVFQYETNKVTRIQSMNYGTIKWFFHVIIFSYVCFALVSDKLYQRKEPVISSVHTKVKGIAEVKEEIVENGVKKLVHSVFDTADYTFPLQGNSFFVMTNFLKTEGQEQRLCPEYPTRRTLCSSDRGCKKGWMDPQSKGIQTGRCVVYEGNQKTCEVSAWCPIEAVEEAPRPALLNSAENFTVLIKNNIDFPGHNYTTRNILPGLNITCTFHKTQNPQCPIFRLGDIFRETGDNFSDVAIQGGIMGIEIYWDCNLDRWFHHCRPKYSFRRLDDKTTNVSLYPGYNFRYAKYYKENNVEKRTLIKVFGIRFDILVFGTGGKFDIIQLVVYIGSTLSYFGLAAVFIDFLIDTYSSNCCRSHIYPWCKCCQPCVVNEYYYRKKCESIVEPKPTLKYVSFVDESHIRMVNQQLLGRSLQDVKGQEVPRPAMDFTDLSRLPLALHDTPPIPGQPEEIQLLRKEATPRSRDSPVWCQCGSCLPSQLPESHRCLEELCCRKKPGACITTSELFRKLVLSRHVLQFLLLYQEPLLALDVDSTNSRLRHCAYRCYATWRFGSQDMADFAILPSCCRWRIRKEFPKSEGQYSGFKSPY

Nc1ncnc2c1ncn2[C@@H]1O[C@H](COP(=O)(O)OP(=O)(O)OP(=O)(O)O)[C@@H](O)[C@H]1O [ATP]
Ca2+ response (activation) at 100 μM ATP (hP2X4): in over-expressing cells illustrated maximal activation of P2X4 and no activation of P2X7
Ca2+ response (no activation) at 100 μM ATP (hP2X7): in over-expressing cells illustrated maximal activation of P2X4 and no activation of P2X7
